Measurements as given in US20260297070A1, “CYCLIC [COMPOUND LEFT OUT] WRN INHIBITORS” (Nimbus Wadjet, Inc., priority 2023, published 2026).
pIC50: −log10 of the molar value.

target: T1, human Werner helicase (WRN-BV08, Uniprot Q14191, amino acids 517-1235 with L1074F point mutation) (Homo sapiens, UniProt Q14191, L1074F); assay: WRN (BV08) ADP-Glo Assay; format: biochemical; details: 0.15 nM WRN, 5 μM ATP, 0.1 nM DNA duplex, 15 min preincubation, 60 min at 25° C., pH 7.5, 1% DMSO; read-out: ADP-Glo_hWRN_IC50
T1 construct: Uniprot Q14191, amino acids 517-1235 with L1074F point mutation; TEV-cleavable 8×His (C, cleaved yes); made in house; host or cells: Sf9 insect cells (baculovirus)
T1 sequence (Q14191 with tags, fused parts or gaps L1074F limits assumed): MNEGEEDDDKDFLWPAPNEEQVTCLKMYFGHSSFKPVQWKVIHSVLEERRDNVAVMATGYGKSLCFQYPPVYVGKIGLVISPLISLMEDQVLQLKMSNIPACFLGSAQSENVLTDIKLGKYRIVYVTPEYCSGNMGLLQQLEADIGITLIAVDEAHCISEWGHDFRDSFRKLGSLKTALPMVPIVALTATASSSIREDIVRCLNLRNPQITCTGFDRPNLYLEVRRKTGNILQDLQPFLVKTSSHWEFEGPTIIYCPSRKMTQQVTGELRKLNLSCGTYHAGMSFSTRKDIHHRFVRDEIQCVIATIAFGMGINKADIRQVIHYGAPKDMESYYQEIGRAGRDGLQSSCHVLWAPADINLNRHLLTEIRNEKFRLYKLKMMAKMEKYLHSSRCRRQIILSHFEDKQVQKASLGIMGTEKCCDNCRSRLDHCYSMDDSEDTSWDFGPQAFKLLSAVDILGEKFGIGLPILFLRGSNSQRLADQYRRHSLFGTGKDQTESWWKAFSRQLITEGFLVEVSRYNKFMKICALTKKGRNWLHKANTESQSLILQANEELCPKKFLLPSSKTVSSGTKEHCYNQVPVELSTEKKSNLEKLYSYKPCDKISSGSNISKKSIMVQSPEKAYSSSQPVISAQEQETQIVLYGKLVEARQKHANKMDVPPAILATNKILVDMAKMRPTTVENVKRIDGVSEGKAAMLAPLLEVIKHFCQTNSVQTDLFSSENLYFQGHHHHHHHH
Method in brief: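 WRN 0.15 nM + cpd, 15 min 25 °C; add 5 μM ATP / 0.1 nM annealed DNA duplex; 60 min 25 °C; ADP-Glo stop, RLU. Buffer 20 mM Bicine pH 7.5, 1 mM MgCl2, 10 mM KCl, 1 mM TCEP. IC50, 4-parameter fit.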

Compound	pIC50
O=C(Cc1c[nH]c2cc(Cl)ccc12)N(Cc1ccncc1)C1C=CS(=O)(=O)C1 (stereo not shown) [I-417, 2-(6-chloro-1H-indol-3-yl)-N-(1,1-dioxo-2,3-dihydro-1lambda6-thiophen-3-yl)-N-[(pyridin-4-yl)methyl]acetamide]	< 4.30
Cc1c(CC(=O)N(Cc2ccncc2)C2C=CS(=O)(=O)C2)c(=O)[nH]c2ccccc12 (stereo not shown) [I-418, N-(1,1-dioxo-2,3-dihydro-1lambda6-thiophen-3-yl)-2-(4-methyl-2-oxo-1,2-dihydroquinolin-3-yl)-N-[(pyridin-4-yl)methyl]acetamide]	< 4.30
O=C(Cc1ccc(-n2cccn2)cc1)N(Cc1ccncc1)C1C=CS(=O)(=O)C1 (stereo not shown) [I-419, N-(1,1-dioxo-2,3-dihydro-1lambda6-thiophen-3-yl)-2-[4-(1H-pyrazol-1-yl)phenyl]-N-[(pyridin-4-yl)methyl]acetamide]	< 4.30
O=C(Cn1cnc(-c2ccccc2)n1)N(Cc1ccncc1)C1C=CS(=O)(=O)C1 (stereo not shown) [I-420, N-(1,1-dioxo-2,3-dihydro-1lambda6-thiophen-3-yl)-2-(3-phenyl-1H-1,2,4-triazol-1-yl)-N-[(pyridin-4-yl)methyl]acetamide]	< 4.30
O=C(Cc1ccc(-n2cccc2)cc1)N(c1ccccc1)C1C=CS(=O)(=O)C1 (stereo not shown) [I-421, N-(1,1-dioxo-2,3-dihydro-1lambda6-thiophen-3-yl)-N-phenyl-2-[4-(1H-pyrrol-1-yl)phenyl]acetamide]	< 4.30
O=C(C1Cc2ccc(-n3cccc3)cc2C1)N(Cc1ccncc1)C1C=CS(=O)(=O)C1 (stereo not shown) [I-422, N-(1,1-dioxo-2,3-dihydro-1lambda6-thiophen-3-yl)-N-[(pyridin-4-yl)methyl]-5-(1H-pyrrol-1-yl)-2,3-dihydro-1H-indene-2-carboxamide]	< 4.30
O=C(c1c[nH]c2cc(-c3ccc(F)cc3)ccc12)N(Cc1ccncc1)C1C=CS(=O)(=O)C1 (stereo not shown) [I-423, N-(1,1-dioxo-2,3-dihydro-1lambda6-thiophen-3-yl)-6-(4-fluorophenyl)-N-[(pyridin-4-yl)methyl]-1H-indole-3-carboxamide]	< 4.30
CC(C)(O)c1cc(CN(C(=O)c2c[nH]c3cc(-c4ccc(F)cc4)ccc23)C2C=CS(=O)(=O)C2)ccn1 (stereo not shown) [I-424, N-(1,1-dioxo-2,3-dihydro-1lambda6-thiophen-3-yl)-6-(4-fluorophenyl)-N-{[2-(2-hydroxypropan-2-yl)pyridin-4-yl]methyl}-1H-indole-3-carboxamide]	< 4.30
COc1cc(CN(C(=O)Cc2ccc(-n3cccc3C)cc2F)[C@H]2C=CS(=O)(=O)C2)ccn1 [I-425, N-[(3S)-1,1-dioxo-2,3-dihydro-1lambda6-thiophen-3-yl]-2-[2-fluoro-4-(2-methyl-1H-pyrrol-1-yl)phenyl]-N-[(2-methoxypyridin-4-yl)methyl]acetamide]	< 4.30
O=C(Cn1cc(Cl)cn1)N(Cc1ccncc1)C1C=CS(=O)(=O)C1 (stereo not shown) [I-427, 2-(4-chloro-1H-pyrazol-1-yl)-N-(1,1-dioxo-2,3-dihydro-1lambda6-thiophen-3-yl)-N-[(pyridin-4-yl)methyl]acetamide]	< 4.30
O=C(Cc1ccc2oc3ccccc3c2c1)N(Cc1ccncc1)C1C=CS(=O)(=O)C1 (stereo not shown) [I-428, N-(1,1-dioxo-2,3-dihydro-1lambda6-thiophen-3-yl)-2-{8-oxatricyclo[7.4.0.0^{2,7}]trideca-1(13),2,4,6,9,11-hexaen-4-yl}-N-[(pyridin-4-yl)methyl]acetamide]	< 4.30
O=C(Cn1cc(C2CC2)cn1)N(Cc1ccncc1)C1C=CS(=O)(=O)C1 (stereo not shown) [I-429, 2-(4-cyclopropyl-1H-pyrazol-1-yl)-N-(1,1-dioxo-2,3-dihydro-1lambda6-thiophen-3-yl)-N-[(pyridin-4-yl)methyl]acetamide]	< 4.30
O=C(Cc1cccc2ccccc12)N(Cc1ccncc1)C1C=CS(=O)(=O)C1 (stereo not shown) [I-431, N-(1,1-dioxo-2,3-dihydro-1lambda6-thiophen-3-yl)-2-(naphthalen-1-yl)-N-[(pyridin-4-yl)methyl]acetamide]	< 4.30
N#CCOc1ccc(CC(=O)N(Cc2ccncc2)C2C=CS(=O)(=O)C2)cc1 (stereo not shown) [I-432, 2-[4-(cyanomethoxy)phenyl]-N-(1,1-dioxo-2,3-dihydro-1lambda6-thiophen-3-yl)-N-[(pyridin-4-yl)methyl]acetamide]	< 4.30
O=C(Cn1cc2ccccc2n1)N(Cc1ccncc1)C1C=CS(=O)(=O)C1 (stereo not shown) [I-433, N-(1,1-dioxo-2,3-dihydro-1lambda6-thiophen-3-yl)-2-(2H-indazol-2-yl)-N-[(pyridin-4-yl)methyl]acetamide]	< 4.30
Cc1c(CC(=O)N(Cc2ccncc2)C2C=CS(=O)(=O)C2)nnn1-c1ccccc1 (stereo not shown) [I-434, N-(1,1-dioxo-2,3-dihydro-1lambda6-thiophen-3-yl)-2-(5-methyl-1-phenyl-1H-1,2,3-triazol-4-yl)-N-[(pyridin-4-yl)methyl]acetamide]	< 4.30
O=C(C(C1CC1)n1cc(-c2ccccc2)cn1)N(Cc1ccncc1)C1C=CS(=O)(=O)C1 (stereo not shown) [I-435, 2-cyclopropyl-N-(1,1-dioxo-2,3-dihydro-1lambda6-thiophen-3-yl)-2-(4-phenyl-1H-pyrazol-1-yl)-N-[(pyridin-4-yl)methyl]acetamide]	< 4.30
Cc1cnn(CC(=O)N(Cc2ccncc2)C2C=CS(=O)(=O)C2)c1 (stereo not shown) [I-436, N-(1,1-dioxo-2,3-dihydro-1lambda6-thiophen-3-yl)-2-(4-methyl-1H-pyrazol-1-yl)-N-[(pyridin-4-yl)methyl]acetamide]	< 4.30
O=C(Cc1cccc(C2CC2)c1)N(Cc1ccncc1)C1C=CS(=O)(=O)C1 (stereo not shown) [I-437, 2-(3-cyclopropylphenyl)-N-(1,1-dioxo-2,3-dihydro-1lambda6-thiophen-3-yl)-N-[(pyridin-4-yl)methyl]acetamide]	< 4.30
O=C(Cc1csc(C2CC2)n1)N(Cc1ccncc1)C1C=CS(=O)(=O)C1 (stereo not shown) [I-438, 2-(2-cyclopropyl-1,3-thiazol-4-yl)-N-(1,1-dioxo-2,3-dihydro-1lambda6-thiophen-3-yl)-N-[(pyridin-4-yl)methyl]acetamide]	< 4.30
O=C(CC12CC(c3ccccc3)(C1)C2)N(Cc1ccncc1)C1C=CS(=O)(=O)C1 (stereo not shown) [I-439, N-(1,1-dioxo-2,3-dihydro-1lambda6-thiophen-3-yl)-2-{3-phenylbicyclo[1.1.1]pentan-1-yl}-N-[(pyridin-4-yl)methyl]acetamide]	< 4.30
O=C(Cc1nc(C2CCCC2)cs1)N(Cc1ccncc1)C1C=CS(=O)(=O)C1 (stereo not shown) [I-440, 2-(4-cyclopentyl-1,3-thiazol-2-yl)-N-(1,1-dioxo-2,3-dihydro-1lambda6-thiophen-3-yl)-N-[(pyridin-4-yl)methyl]acetamide]	< 4.30
Cc1ccnn1-c1ccc(CC(=O)N(Cc2ccncc2)C2C=CS(=O)(=O)C2)cc1 (stereo not shown) [I-441, N-(1,1-dioxo-2,3-dihydro-1lambda6-thiophen-3-yl)-2-[4-(5-methyl-1H-pyrazol-1-yl)phenyl]-N-[(pyridin-4-yl)methyl]acetamide]	< 4.30
O=C(Cn1nnc(-c2ccccc2)n1)N(Cc1ccncc1)C1C=CS(=O)(=O)C1 (stereo not shown) [I-442, N-(1,1-dioxo-2,3-dihydro-1lambda6-thiophen-3-yl)-2-(5-phenyl-2H-1,2,3,4-tetrazol-2-yl)-N-[(pyridin-4-yl)methyl]acetamide]	< 4.30

same assay, conditions: ADP-Glo_hWRN_IC50, 0.15 nM WRN, 5 μM ATP, 0.1 nM DNA duplex, 15 min preincubation, 60 min at 25° C., pH 7.5, 1% DMSO

Compound	pIC50
O=C(CN1CC=C(c2ccccc2)CC1)N(c1ccccc1)C1C=CS(=O)(=O)C1 (stereo not shown) [I-430, N-(1,1-dioxo-2,3-dihydro-1lambda6-thiophen-3-yl)-N-phenyl-2-(4-phenyl-1,2,3,6-tetrahydropyridin-1-yl)acetamide]	< 4.30
